These results are taken from US20110178053A1, “AZACARBOLINE DERIVATIVES, PREPARATION METHOD THEREOF AND THERAPEUTIC USE OF SAME” (SANOFI-AVENTIS, priority 2008, published 2011).

Molecules are shown by their SMILES.

Format in all cases: biochemical
In test [1] the target is T1, Pim-2 (Homo sapiens, UniProt Q9P1W9).
T1 construct: His6-labelled recombinant full-length human Pim-1, Pim-2 or Pim-3 protein; His6; made in house
Briefly: TR-FRET assay, Pim-2 kinase (phosphorylation of Bad Ser112). The settings on record: TR-FRET; ATP 40 μM; read-out: IC50 Pim2. The method, then:
(§1) In order to determine the inhibition of activation of Pim kinases, the compounds of the invention are tested in accordance with a routinely used in vitro TR-FRET assay (Time-Resolved Fluorescence Resonance Energy Transfer). […] For the assay, the following reagents are used:
(§2) Pim kinase—His6-labelled recombinant full-length human Pim-1, Pim-2 or Pim-3 protein (prepared according to J. Mol. Biol. (2005) 348, 183-193); Bad—His6-labelled recombinant full-length human Bad protein (prepared according to J. Mol. Biol. (2005) 348, 183-193); α-His6-APC—murine monoclonal antibody conjugated to allophycocyanin SureLight™ directed against the His6 label (Perkin-Elmer, No. AD0059H, Waltham, Mass., United States); • β-P˜Bad-Eu—murine monoclonal antibody (Cell Signaling Technology #9296B, Danvers, Mass., United States) directed against phosphoBad (Ser112) (7E11) custom-labelled by Perkin-Elmer with the reagent LANCE™ Eu-W1024.
(§3) The assay is based on Perkin-Elmer's LANCE™ technology: the Eu-labelled antibody binds to phospho-Ser112 and generates a TR-FRET signal by interaction with the APC-labelled antibody directed against His6, bound to the His6 label of Bad. The TR-FRET signal is detected using a SpectraMax M5 plate reader (Molecular Devices) with the following settings: λex=340 nm, λem1=615 nm, λem2=665 nm. The ratio of the fluorescence signal at 665 nm to the fluorescence signal at 615 nm is used as the signal reading for the IC50 (calculation is based on the 4-parameter logistic model). The assay is performed in a 384-well format; the liquid manipulations are performed using a Beckman 3000 liquid manipulations station. The test compounds are tested at 10 concentration points in duplicate; the highest compound concentration is typically equal to 30 μM. The ATP concentration is equal to 40 μM, which is equivalent to the apparent KM value.

In test [2] the target is T2, Pim-3 (Homo sapiens, UniProt Q86V86).
T2 construct: His6-labelled recombinant full-length human Pim-1, Pim-2 or Pim-3 protein; His6; made in house
As to the kind of experiment: TR-FRET assay, Pim-3 kinase (phosphorylation of Bad Ser112). The settings on record: TR-FRET; ATP 40 μM; read-out: IC50 Pim3. How it is done: as §1, §2, §3
In general terms: TR-FRET usually uses a lanthanide donor and a delayed reading to cut background.

Test [3] addresses T3, Pim-1 (Homo sapiens, UniProt P11309).
T3 construct: His6-labelled recombinant full-length human Pim-1, Pim-2 or Pim-3 protein; His6; made in house
Briefly: TR-FRET assay, Pim-1 kinase (phosphorylation of Bad Ser112). As to conditions: TR-FRET; ATP 40 μM; read-out: IC50 Pim1. The method, then: as §1, §2, §3

T3 sequence (P11309 whole entry): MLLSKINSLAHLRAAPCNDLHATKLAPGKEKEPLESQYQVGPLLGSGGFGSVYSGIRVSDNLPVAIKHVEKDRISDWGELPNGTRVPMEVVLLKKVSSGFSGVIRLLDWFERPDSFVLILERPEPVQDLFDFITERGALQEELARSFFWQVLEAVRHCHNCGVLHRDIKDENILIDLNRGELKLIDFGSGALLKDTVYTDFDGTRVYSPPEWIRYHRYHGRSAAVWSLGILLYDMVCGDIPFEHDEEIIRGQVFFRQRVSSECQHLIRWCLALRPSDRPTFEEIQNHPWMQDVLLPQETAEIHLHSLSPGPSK
T1 sequence (Q9P1W9 whole entry): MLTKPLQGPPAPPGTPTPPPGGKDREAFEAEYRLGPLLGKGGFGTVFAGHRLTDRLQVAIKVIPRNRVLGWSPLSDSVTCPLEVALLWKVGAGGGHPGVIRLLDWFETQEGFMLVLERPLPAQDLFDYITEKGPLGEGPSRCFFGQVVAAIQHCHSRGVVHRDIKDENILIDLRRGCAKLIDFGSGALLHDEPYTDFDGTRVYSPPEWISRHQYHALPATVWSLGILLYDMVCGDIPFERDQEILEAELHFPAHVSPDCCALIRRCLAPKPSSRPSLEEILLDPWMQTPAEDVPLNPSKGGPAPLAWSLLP

One may read the IC50 as the midpoint of a concentration-inhibition curve. `CN1CCN(C2CCN(c3c(F)cnc4[nH]c5cnc(-c6cccnc6)cc5c34)CC2)CC1` [Example 82, 3-fluoro-4-[4-(4-methylpiperazin-1-yl)piperid-1-yl]-6-(pyrid-3-yl)-9H-pyrrolo-[2,3-b:5,4-c′]-dipyridine]: the IC50 in test [1] fell in the range of 1 to 5 µM; in test [2], 100 to 1000 nM; in test [3] it was 1 to 100 nM.
In the case of `Fc1cnc2[nH]c3cnc(-c4cccnc4)cc3c2c1N1CCC(N2CCCCC2)CC1` [Example 83, 4-(1.4′-bipiperid-1′-yl)-3-fluoro-6-(pyrid-3-yl)-9H-pyrrolo[2,3-b:5,4-c′]-dipyridine], the IC50 in test [1] was over 5 µM; in test [2], 100 to 1000 nM; in test [3] it was 100 to 1000 nM.
On to `CN(C)C1CCN(c2c(F)cnc3[nH]c4cnc(-c5cccnc5)cc4c23)CC1` [Example 84, 1-[3-fluoro-6-(pyrid-3-yl)-9H-pyrrolo[2,3-b:5,4-c′]dipyrid-4-yl]-N,N-dimethylpiperid-4-amine], for which the results for the IC50 in test [1], in test [2] and in test [3] were 1 to 5 µM, 100 to 1000 nM and 100 to 1000 nM, respectively.
Regarding `Fc1cnc2[nH]c3cnc(-c4cccnc4)cc3c2c1N1CCC(N2CCCC2)CC1` [Example 85, 3-fluoro-6-(pyrid-3-yl)-4-[4-(pyrrolidin-1-yl)piperid-1-yl]-9H-pyrrolo[2,3-b:5,4-c′]-dipyridine], the values for the IC50 in test [1], in test [2] and in test [3] were 1 to 5 µM, 100 to 1000 nM and 1 to 100 nM, respectively.
For `Fc1cnc2[nH]c3cnc(-c4cccnc4)cc3c2c1N1CCN(CCCN2CCOCC2)CC1` [Example 87, 3-fluoro-4-{4-[3-(morpholin-4-yl)propyl]piperazin-1-yl}-6-(pyrid-3-yl)-9H-pyrrolo-[2,3-b:5,4-c′]-dipyridine], the IC50 was 0.1 to 1 µM in test [1], 1 to 100 nM in test [2] and 1 to 100 nM in test [3].
Regarding `CC(C)(N)C#Cc1c(F)cnc2[nH]c3cnc(-c4cccnc4)cc3c12` [Example 90, 4-[3-fluoro-6-(pyrid-3-yl)-9H-pyrrolo[2,3-b:5,4-c′]dipyrid-4-yl]-2-methylbut-3-yn-2-amine], the IC50 in test [1] is over 5 µM; in test [2] it was 100 to 1000 nM; in test [3], 100 to 1000 nM.
Turning to `CC(C)(O)C#Cc1c(F)cnc2[nH]c3cnc(-c4cccnc4)cc3c12` [Example 91, 4-[3-fluoro-6-(pyrid-3-yl)-9H-pyrrolo[2,3-b:5,4-c′]dipyrid-4-yl]-2-methylbut-3-yn-2-ol], the results for the 50% inhibitory concentration (IC50) in test [1], in test [2] and in test [3] were 1 to 5 µM, 1 to 100 nM and 1 to 100 nM, respectively.
With `COc1c(F)cnc2[nH]c3cnc(-c4cccnc4)cc3c12` [Example 105, 3-fluoro-4-methoxy-6-(pyrid-3-yl)-9H-pyrrolo[2,3-b:5,4-c′]dipyridine], the IC50 was over 5 µM in test [1], 100 to 1000 nM in test [2] and 1 to 100 nM in test [3].
Take `CN1CCN(c2cnc3[nH]c4cnc(-c5cccnc5)cc4c3c2)CC1` [Example 106, 3-(4-methylpiperazin-1-yl)-6-(pyrid-3-yl)-9H-pyrrolo[2,3-b:5,4-c′]dipyridine]: the IC50 in test [1] is over 5 µM; in test [2] it was 1 to 100 nM; in test [3], 1 to 100 nM.
With `c1cncc(-c2cc3c(cn2)[nH]c2ncc(N4CCNCC4)cc23)c1` [Example 108, 3-(piperazin-1-yl)-6-(pyrid-3-yl)-9H-pyrrolo[2,3-b:5,4-c′]-dipyridine], the IC50 in test [1] is over 5 µM; in test [2], 1 to 100 nM; in test [3], 1 to 100 nM.
`Nc1cnc2[nH]c3cnc(-c4cccnc4)cc3c2c1` [Example 109, 6-(pyrid-3-yl)-9H-pyrrolo[2,3-b:5,4-c′]dipyrid-3-amine]: the results for the IC50 in test [1], in test [2] and in test [3] were over 5 µM, 100 to 1000 nM and 1 to 100 nM, respectively.
Taken in the same sequence, the figures for `FC(F)(F)COc1cnc2[nH]c3cnc(-c4cccnc4)cc3c2c1` [Example 111, 6-(pyrid-3-yl)-3-(2,2,2-trifluoroethoxy)-9H-pyrrolo[2,3-b:5,4-c′]dipyridine] were 1 to 5 µM, 100 to 1000 nM and 1 to 100 nM.
